According to US9062095B2, “Mutant double cyclized receptor peptides inhibiting β1-adrenoceptor antibodies” (JULIUS-MAXIMILIANS-UNIVERSTITAT-WURZBURG, priority 2007, dated 2015):
Positions of bridges follow the written chain, without caps; N, C: chain ends. Non-standard residues stand in square brackets, D forms with d.

How the values were obtained:
anti-β1-ECII antibodies = test: ELISA-competition assay: peptide preincubated with sera/IgG of immunized antibody-positive rats, linear 25AA Cys/Cys-peptide as antigen; assay type: binding, rat; set-up: blocking capacity (% of blocked versus non-blocked ELISA-reactivity): concentration or dose not given beside the values; details: for decrease in circulating free anti-beta1-ECII antibodies: n=6 sera (FIG. 11); for blocking capacity (% of blocked versus non-blocked ELISA-reactivity): IgG from n=78 immunized antibody-positive rats, preincubation 12 h, 4° C., mutants with D-Glu ring closure (FIG. 7); for blocking capacity (% of blocked versus non-blocked ELISA-reactivity) / blocking efficiency (% of blocked versus non-blocked ELISA reactivity) / blocking capacity (% of blocked versus non-blocked ELISA reactivity): ±SEM; for ability to significantly block antibody-binding to the β1-ECII-antigen: IgG-fractions from 12 rats, 18AA mutants with D-Glu ring closure (FIG. 4); for fraction of rat sera blocked by the peptide: n=82 sera, D-Glu ring closure (FIG. 8), Cys/Ser = blocked by it alone, Ser/Cys = sera blocked by both mutants; for blocking efficiency (% of blocked versus non-blocked ELISA reactivity): type1 sera (93%, n=64 of 69), FIG. 9 upper panel; for blocking capacity (% of blocked versus non-blocked ELISA reactivity): type 2 sera (7%, n=5 of 69), FIG. 9 lower panel
Protocol: FIG. 9 is a diagram composed of two major-(upper and lower) panels resuming the blocking effect of both 25AA- and 18AA-cyclopeptide mutants having a Gln closure site, as well as 18AA cyclopeptide mutants having a D-Glu closure site after preincubation (12 h, 4° C., rotating incubation) with sera isolated from 69 different immunized antibody-positive rats in an ELISA-competition assay using the 3 Cys-containing linear 25AA Cys/Cys-peptide as an antigen. The upper panel depicts rat sera preferentially reacting with the Cys/Ser mutated cyclopeptides (type1 reaction, n=64), separated in cyc25AA(Gln)-peptides (left) and cyc18AA(Gln and D-Glu)-peptides (right). The lower panel depicts the rat sera reacting with both the Cys/Ser and the Ser/Cys mutated cyclopeptides (type2 reaction, n=5), again separated in the results obtained with cyc25AA(Gln)-peptides (left) and cyc18AA(Gln and D-Glu)-peptides (right).
FIG. 11 is a diagram resuming the dose-dependent (x-axis, abscissa: fold molar excess of specific peptides) blocking capacity of various linear and cyclic beta1-ECII-peptides given in % of the unblocked antibody-titer (y-axis, ordinate), including 25AA Cys/Cys linear peptides (black squares), 25AA Cys/Ser cyclopeptide mutants (white squares), 18AA Cys/Cys cyclo-peptides (black diamonds), 18AA Cys/Ser cyclopeptide mutants (white diamonds), and 18AA Cys/Ser linear peptide mutants (vertically hatched diamonds) in an ELISA competition assay performed with sera from n=6 randomly chosen immunized antibody-positive rats.
FIGS. 27A and B depict the in vitro blocking (=neutralization) capacity of various cysteine-containing cyclopeptide variants of the second extracellular loop (ECII) of the human beta1-adrenergic receptor, determined by testing n=6 individual sera (27A) of immunized beta1-ECII-antibody-positive rats after over-night incubation with the indicated cyclopeptides (12-14 h, 4° C.) by ELISA. Columns in 27A represent the receptor-antibody blocking efficiency of the indicated cyclopeptides in % of the antibody-(ELISA-)signals obtained with unblocked antibody-positive rat sera. Columns in 27B represent the mean blocking efficiency for each cyclopeptide, error bars indicate ±SEM.
The blocking capacity of β1-ECII-18AA cyclopeptide mutants (Cys13-Ser14 or Ser13-Cys14 mutation having an additional D-Glu-Gln exchange, e.g. at the ring closure site) was compared with the 3 Cys-containing 25AA or 18AA Cys/Cys cyclopeptides after preincubation (12 h, 4° C., rotating incubation over-night) of different numbers of sera from immunized antibody-positive rats in an ELISA-competition assay using the 3 Cys-containing linear 25AA Cys/Cys-peptide as an antigen. FIGS. 4, 5, and 7-10 show the results from measurements performed with sera of n=12 up to n=82 immunized antibody-positive rats using different cyclopeptides of the present invention.

[1] = test system: beta1-receptor antibodies; test: in vivo prevention study: five prophylactic peptide applications, serum antibody-titers by ELISA; set-up: species or system rat; details: 1.0 mg/kg body weight i.v., 4-weekly, prevention protocol (FIG. 12)
Protocol: FIG. 12 is a diagram resuming the in vivo blocking capacity of in total five (prophylatic) applications of various linear and cyclic beta1-ECII-peptides, started 3 months after the first immunization (and two subsequent beta1-ECII/GST-antigen-boosts, corresponding to a prevention protocol). Serum-titers of the beta1-receptor antibodies were determined before and 18-20 h after each peptide injection (abscissa, time in months) and are given in % of the corresponding antibody-titers of immunized untreated rats (y-axis, ordinate). The injected peptides were: 25AA Cys/Cys linear peptide (black squares), […] (white squares), 18AA Cys/Cys cyclopeptide (black diamond), 18AA Cys/Ser cyclopeptide mutant (white diamonds), and the 18AA Cys/Ser linear peptide mutant (vertically hatched diamonds). […] Black circles indicate antibody-titers of untreated regularly (every 4 weeks) immunized animals serving as reference, set at 100%.
The in-vivo blocking effects of both 25AA and 18AA Cys/Ser mutant cyclopeptides (with a Gln closure site), the 18AA Ser/Cys mutant cyclopeptide, and a mutated linear 18AA Cys/Ser peptide were analyzed after intravenous (i.v.) injection of 1.0 mg/kg body weight (Bw) of each construct into freshly immunized antibody-positive rats (i.e., use of cyclo-peptides in a kind of “prevention” study), with a first cyclopeptide-application 3 months after the initial immunization (and two subsequent boost at months 2 and 3). In total, five prophylactic applications of the various constructs were given at 4-weekly intervals, always two weeks after the monthly continued antigen boost. Sera were drawn 18-20 hours after i.v. injection and assayed for reactivity by ELISA using the 3 Cys-containing linear 25AA Cys/Cys-peptide as an antigen (FIG. 12).

[2] = test system: anti-beta1-ECII antibody-secreting cells (ASC); test: ELISPOT-assay with B-cells from bone marrow or spleen of prophylactically treated rats; assay type: in vivo, rat; details: prophylactically treated versus untreated immunized rats, n=3-4 (FIG. 13)
Protocol: Cys/Ser, horizontally hatched columns). For the assays, ELIspot plates were coated overnight with the specific antigen (GST/beta1-ECII-FP) in 0.05 mol/1 Tris buffer, pH 9.4.; then the plates were washed 3 times and blocked with BSA for 3 hours at 37° C. Subsequently, the plates were incubated overnight at 37° C. with B-cells from either spleen or bone marrow (cultured in RPMI 1640/X-VIVO-15 medium supplemented with 10% fetal calf serum (FCS)) with 1×10^6 to 1×10^3 cells per well. After 12 hours the B-cells were discarded and the plates with the B-cell secreted IgG bound were washed several times (PBS/0.5° A) Tween) before the addition of alkaline phos-phatase conjugated secondary anti-rat IgG (0.3 μg/ml) to detect bound rat IgG. Then the plates were incubated for another 3 hours at 37° C., washed several times with PBS/0.5% Tween, and developed using LMP/BICP 5:1 (1 ml per well; “LMP” means low melting agarose, and “BICP” means 5-bromo-4-chloro-3-indolyl phosphate p-toluidine salt, a blue-colored dye) allowing for a quantification of the blue spots obtained, with each spot representing an antigen-specific IgG secreting spleen or bone-marrow cell.
This finding was confirmed by ELIspot analysis of bone marrow and spleen cell preparations of selected cyclopeptide-treated versus untreated immunized rats (n=3).

[3] = test system: antibody-induced cellular cAMP-production of HEK 293-β1 cells (β1-receptor-mediated signalling); test: functional cAMP-assay by fluorescence resonance energy transfer (FRET); assay type: cell-based, human; details: anti-β1-ECII IgG of a representative rat, preincubation 12 h, 4° C. (FIG. 6)
Protocol: FIG. 6 is a diagram depicting the blocking capacity of β1-ECII-18AA cyclopeptide mutants having a D-Glu ring closure on β1-receptor-mediated signalling (functional cAMP-assay) using an approach by fluorescence resonance energy transfer (FRET). The effect of the preincubation (12 h, 4° C., rotating incubator) of anti-β1-ECII IgG antibodies of a representative rat (serum) (FIG. 4, rat number 4) with β1-ECII-18AA-cyclopeptide mutants (Cys/Ser mutation, dark blue (3); Ser/Cys mutation, light blue (4)) was compared with the effect of a 3 Cys-containing 25AA Cys/Cys cyclopeptide (red (2)) or the result obtained with anti-β1-ECII IgG antibodies in the absence of blocking peptides (black (1)). The y-axis represents the normalized YFP/CFP-ratio of the registered FRET emission signals, the x-axis corresponds to the registration time given in seconds (s).
The blocking capacity of β1-ECII 25AA or 18AA cyclopeptide mutants (having a D-Glu/Gln at the ring closure site or not) on β1-receptor-mediated signalling (functional cAMP-assay) was assayed using an approach by fluorescence resonance energy transfer (FRET) (FIG. 6).
The effect of the pre-incubation (12 h, 4° C., rotating incubator) of anti-β1-ECII IgG antibodies of a representative rat with β1-ECII-18AA cyclopeptide mutants (Cys/Ser or Ser/Cys mutations, respectively) was compared with the inhibitory effect of a 3 Cys-containing 25AA Cys/Cys cyclopeptide or with the effect of anti-β1-ECII IgG antibodies not incubated with blocking peptides. The normalized YFP/CFP-ratio of the registered FRET emission signals served to quantify the effect of the cyclopeptide mutants of the present invention in terms of blockade (in percent) of antibody-induced cellular cAMP-production of transiently Epac1-transfected stably β1-AR expressing human embryonic kidney cells (HEK 293-β1 cells). The x-axis in FIG. 6 corresponds to the registration time given in seconds (s).

Ala-Asp-Glu-Ala-Arg-Arg-Cys-Tyr-Asn-Asp-Pro-Lys-Cys-Ser-Asp-Phe-Val-Gln (cyclo(ADEARRCYNDPKCSDFVQ); disulfide 7-13 (inferred)) [linear 18AA Cys/Ser peptides, reference compound]
decrease in circulating free anti-beta1-ECII antibodies (anti-β1-ECII antibodies; 8-fold molar excess of peptide): 24% | decrease in circulating free anti-beta1-ECII antibodies (anti-β1-ECII antibodies; 20-fold molar excess of peptide): 35% | decrease in circulating free anti-beta1-ECII antibodies (anti-β1-ECII antibodies; 80-fold molar excess of peptide): about 50% | antibody-titer decrease after 5 injections, compared with untreated immunized animals [1]: 4.5±11% | number of specific anti-beta1-ECII antibody-secreting cells (ASC) in spleen and bone marrow [2]: no effect

cyclo(Ala-Asp-Glu-Ala-Arg-Arg-Cys-Tyr-Asn-Asp-Pro-Lys-Cys-Ser-Asp-Phe-Val-DGlu) (cyclo(ADEARRCYNDPKCSDFV[dE]); disulfide 7-13 (inferred))
blocking capacity (% of blocked versus non-blocked ELISA-reactivity) (anti-β1-ECII antibodies): 69±2% | blocking effect compared with the 3 Cys-containing β1-ECII-18AA Cys/Cys cyclopeptide (anti-β1-ECII antibodies; IgG-fractions from 12 rats (FIG. 4)): comparable or (in more than half of the sera analyzed n=8/12) was even more effective | ability to significantly block antibody-binding to the β1-ECII-antigen (anti-β1-ECII antibodies): able to significantly block | blocking of receptor antibodies versus Ser/Cys counterpart or linear 25AA Cys/Cys peptide (anti-β1-ECII antibodies; dose-titration, two to eight-fold molar excess, one representative serum (FIG. 5)): consistently largely superior | fraction of rat sera blocked by the peptide (anti-β1-ECII antibodies; listed as ECII-18AA Cys/Ser mutant): > 95% | fraction of rat sera blocked by the peptide (anti-β1-ECII antibodies; listed as β1-ECII-18AA Cys/Ser mutated cyclopeptide (D-Glu ring closure)): About 95% | blocking efficiency (% of blocked versus non-blocked ELISA reactivity) (anti-β1-ECII antibodies): 69±2% | blocking capacity (% of blocked versus non-blocked ELISA reactivity) (anti-β1-ECII antibodies): 47±5% | inhibition of functional antibody-effects (blocking intracellular cAMP-increases) [3]: largely superior to its Ser/Cys counterpart, and even slightly more effective than a 3 Cys-containing 25AA Cys/Cys cyclopeptide

cyclo(Ala-Asp-Glu-Ala-Arg-Arg-Cys-Tyr-Asn-Asp-Pro-Lys-Ser-Cys-Asp-Phe-Val-DGlu) (cyclo(ADEARRCYNDPKSCDFV[dE]); disulfide 7-14 (inferred)) [18AA Ser/Cys with D-Glu-closure]
blocking capacity (% of blocked versus non-blocked ELISA-reactivity) (anti-β1-ECII antibodies): 1±2% | ability to significantly block antibody-binding to the β1-ECII-antigen (anti-β1-ECII antibodies): not | fraction of rat sera blocked by the peptide (anti-β1-ECII antibodies; listed as 18AA Ser/Cys-mutants): about 5% | fraction of rat sera blocked by the peptide (anti-β1-ECII antibodies; listed as cyclic ECII-18AA Ser/Cys mutants): < 5% | blocking efficiency (% of blocked versus non-blocked ELISA reactivity) (anti-β1-ECII antibodies): 1±2% | blocking capacity (% of blocked versus non-blocked ELISA reactivity) (anti-β1-ECII antibodies): 33±5% | inhibition of functional antibody-effects (blocking intracellular cAMP-increases) [3]: almost no inhibitory effect

cyclo(Ala-Arg-Ala-Glu-Ser-Asp-Glu-Ala-Arg-Arg-Cys-Tyr-Asn-Asp-Pro-Lys-Ser-Cys-Asp-Phe-Val-Thr-Asn-Arg-Gln) (cyclo(ARAESDEARRCYNDPKSCDFVTNRQ); disulfide 11-18 (inferred)) [25AA Ser/Cys]
blocking capacity (% of blocked versus non-blocked ELISA-reactivity) (anti-β1-ECII antibodies): 6±2% | blocking efficiency (% of blocked versus non-blocked ELISA reactivity) (anti-β1-ECII antibodies): 6±2% | blocking capacity (% of blocked versus non-blocked ELISA reactivity) (anti-β1-ECII antibodies): 37±7% | inhibition of functional antibody-effects (blocking intracellular cAMP-increases) [3]: almost no inhibitory effect
